Tests used:
Assay type in all cases: in vivo
[1] = tested on: redroot pigweed (Amaranthus retroflexus, AMARE); test: Pre-emerge test, greenhouse herbicide activity screening; settings: pre-emerge, phytotoxicity rating 0-100 at 14 days after application
Procedure, shortened: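 Compounds in acetone were track-sprayed at 187 l/ha, 15–1000 g ai/ha, onto sandy loam pots. Pre-emerge seeds were sown one day before spraying, with surface watering afterwards. Post-emerge plants were at the 2–3 leaf stage and sprayed with 0.25% v/v non-ionic surfactant. Injury was rated 0–100 at 14 days.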

[2] = tested on: barnyardgrass (Echinochloa crus-galli, ECHCG); test: as above; settings: pre-emerge, phytotoxicity rating 0-100 at 14 days after application
Procedure, shortened: (§1)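 Fourteen days after spraying, crop and weed injury was graded visually from 0, no effect, to 100, every plant dead. Test substances were dissolved in acetone and applied at 15–1000 g ai/ha with a flat-fan nozzle. Application was either pre-emergence, one day after sowing, or post-emergence at the 2–3 leaf stage.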

[3] = tested on: green foxtail (Setaria viridis, SETVI); test: as above; settings: pre-emerge, phytotoxicity rating 0-100 at 14 days after application
Procedure, shortened: as §1

[4] = tested on: ivyleaf morningglory (Ipomoea hederacea, IPOHE); test: as above; settings: pre-emerge, phytotoxicity rating 0-100 at 14 days after application
Procedure, shortened: as §1

[5] = tested on: johnsongrass (Sorghum halepense, SORHA); test: as above; settings: pre-emerge, phytotoxicity rating 0-100 at 14 days after application
Procedure, shortened: as §1

[6] = tested on: lambsquarters (Chenopodium album, CHEAL); test: as above; settings: pre-emerge, phytotoxicity rating 0-100 at 14 days after application
Procedure, shortened: as §1

[7] = tested on: large crabgrass (Digitaria sanguinalis, DIGSA); test: as above; settings: pre-emerge, phytotoxicity rating 0-100 at 14 days after application
Procedure, shortened: as §1

[8] = tested on: sicklepod (Cassia obtusifolia, CASOB); test: as above; settings: pre-emerge, phytotoxicity rating 0-100 at 14 days after application
Procedure, shortened: as §1

[9] = tested on: velvetleaf (Abutilon theophrasti, ABUTH); test: as above; settings: pre-emerge, phytotoxicity rating 0-100 at 14 days after application
Procedure, shortened: as §1

[10] = tested on: field corn (Zea mays L., var. Dekalb 535, CORN); test: Pre-emerge test, crop safety; settings: crop damage, pre-emerge, phytotoxicity rating 0-100 at 14 days after application
Procedure, shortened: (§2)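 Plants grown in 10 cm pots of sandy loam mix received acetone-dissolved compounds through a moving flat-fan nozzle. Doses ranged from 15 to 1000 g ai/ha. Pre-emerge pots were seeded one day earlier, post-emerge pots 8–21 days earlier. Fourteen days on, each pot was graded 0–100 for damage.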

[11] = tested on: upland rice (Oryza sp., var. Tebonnet, RICE); test: Pre-emerge test, crop safety; settings: crop damage, pre-emerge, phytotoxicity rating 0-100 at 14 days after application
Procedure, shortened: as §2

[12] = tested on: barnyardgrass (Echinochloa crus-galli, ECHCG); test: Post-emerge test, greenhouse herbicide activity screening; settings: post-emerge, phytotoxicity rating 0-100 at 14 days after application
Procedure, shortened: (§3)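 Compounds in acetone were track-sprayed at 15–1000 g ai/ha: pre-emergence onto soil sown the previous day, then top-watered to incorporate and later bottom-watered; post-emergence onto 2–3 leaf plants with 0.25% v/v surfactant, bottom-watered only. Ratings on a 0–100 phytotoxicity scale were taken at day 14.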

[13] = tested on: green foxtail (Setaria viridis, SETVI); test: as above; settings: post-emerge, phytotoxicity rating 0-100 at 14 days after application
Procedure, shortened: as §3

[14] = tested on: ivyleaf morningglory (Ipomoea hederacea, IPOHE); test: as above; settings: post-emerge, phytotoxicity rating 0-100 at 14 days after application
Procedure, shortened: as §3

[15] = tested on: johnsongrass (Sorghum halepense, SORHA); test: as above; settings: post-emerge, phytotoxicity rating 0-100 at 14 days after application
Procedure, shortened: as §3

[16] = tested on: lambsquarters (Chenopodium album, CHEAL); test: as above; settings: post-emerge, phytotoxicity rating 0-100 at 14 days after application
Procedure, shortened: as §3

[17] = tested on: large crabgrass (Digitaria sanguinalis, DIGSA); test: as above; settings: post-emerge, phytotoxicity rating 0-100 at 14 days after application
Procedure, shortened: as §3

[18] = tested on: redroot pigweed (Amaranthus retroflexus, AMARE); test: as above; settings: post-emerge, phytotoxicity rating 0-100 at 14 days after application
Procedure, shortened: as §3

[19] = tested on: sicklepod (Cassia obtusifolia, CASOB); test: as above; settings: post-emerge, phytotoxicity rating 0-100 at 14 days after application
Procedure, shortened: as §3

[20] = tested on: velvetleaf (Abutilon theophrasti, ABUTH); test: as above; settings: post-emerge, phytotoxicity rating 0-100 at 14 days after application
Procedure, shortened: as §3

[21] = tested on: field corn (Zea mays L., var. Dekalb 535, CORN); test: Post-emerge test, crop safety; settings: post-emerge, crop damage rating 0-100 at 14 days after application
Procedure, shortened: as §1

[22] = tested on: upland rice (Oryza sp., var. Tebonnet, RICE); test: Post-emerge test, crop safety; settings: post-emerge, crop damage rating 0-100 at 14 days after application
Procedure, shortened: as §1

Cc1ccc(COC(=O)Nc2c(C)c(Cl)cc(F)c2-n2c(=O)cc(C(F)(F)F)n(C)c2=O)cc1 [4-60]
70: Pre-emerge Herbicidal Activity ECHCG ([2]; rate 250 g ai/ha) | Pre-emerge Herbicidal Activity RICE ([11]; rate 250 g ai/ha) | Post-emerge Herbicidal Activity RICE ([22]; 250 g ai/ha)
25: Post-emerge Herbicidal Activity CORN ([21]; 63 g ai/ha)
0: Pre-emerge Herbicidal Activity CORN ([10]; rate 63 g ai/ha)
60: Pre-emerge Herbicidal Activity RICE ([11]; rate 63 g ai/ha) | Post-emerge Herbicidal Activity ECHCG ([12]; 63 g ai/ha) | Post-emerge Herbicidal Activity DIGSA ([17]; 250 g ai/ha) | Post-emerge Herbicidal Activity CASOB ([19]; 63 g ai/ha)
50: Pre-emerge Herbicidal Activity IPOHE ([4]; rate 63 g ai/ha) | Pre-emerge Herbicidal Activity SORHA ([5]; rate 250 g ai/ha) | Post-emerge Herbicidal Activity ECHCG ([12]; 250 g ai/ha) | Post-emerge Herbicidal Activity SORHA ([15]; 63 g ai/ha) | Post-emerge Herbicidal Activity SORHA ([15]; 250 g ai/ha) | Post-emerge Herbicidal Activity RICE ([22]; 63 g ai/ha)
90: Pre-emerge Herbicidal Activity SETVI ([3]; rate 63 g ai/ha) | Pre-emerge Herbicidal Activity CASOB ([8]; rate 63 g ai/ha) | Post-emerge Herbicidal Activity SETVI ([13]; 250 g ai/ha)
65: Post-emerge Herbicidal Activity SETVI ([13]; 63 g ai/ha)
30: Pre-emerge Herbicidal Activity SORHA ([5]; rate 63 g ai/ha) | Pre-emerge Herbicidal Activity CORN ([10]; rate 250 g ai/ha)
55: Post-emerge Herbicidal Activity CORN ([21]; 250 g ai/ha)
100: Pre-emerge Herbicidal Activity AMARE ([1]; rate 63 g ai/ha) | Pre-emerge Herbicidal Activity AMARE ([1]; rate 250 g ai/ha) | Pre-emerge Herbicidal Activity SETVI ([3]; rate 250 g ai/ha) | Pre-emerge Herbicidal Activity IPOHE ([4]; rate 250 g ai/ha) | Pre-emerge Herbicidal Activity CHEAL ([6]; rate 63 g ai/ha) | Pre-emerge Herbicidal Activity CHEAL ([6]; rate 250 g ai/ha) | Pre-emerge Herbicidal Activity DIGSA ([7]; rate 63 g ai/ha) | Pre-emerge Herbicidal Activity DIGSA ([7]; rate 250 g ai/ha) | Pre-emerge Herbicidal Activity CASOB ([8]; rate 250 g ai/ha) | Pre-emerge Herbicidal Activity ABUTH ([9]; rate 63 g ai/ha) | Pre-emerge Herbicidal Activity ABUTH ([9]; rate 250 g ai/ha) | Post-emerge Herbicidal Activity IPOHE ([14]; 63 g ai/ha) | Post-emerge Herbicidal Activity IPOHE ([14]; 250 g ai/ha) | Post-emerge Herbicidal Activity CHEAL ([16]; 63 g ai/ha) | Post-emerge Herbicidal Activity CHEAL ([16]; 250 g ai/ha) | Post-emerge Herbicidal Activity AMARE ([18]; 63 g ai/ha) | Post-emerge Herbicidal Activity AMARE ([18]; 250 g ai/ha) | Post-emerge Herbicidal Activity CASOB ([19]; 250 g ai/ha) | Post-emerge Herbicidal Activity ABUTH ([20]; 63 g ai/ha) | Post-emerge Herbicidal Activity ABUTH ([20]; 250 g ai/ha)
40: Pre-emerge Herbicidal Activity ECHCG ([2]; rate 63 g ai/ha) | Post-emerge Herbicidal Activity DIGSA ([17]; 63 g ai/ha)

Cc1c(Cl)cc(F)c(-n2c(=O)cc(C(F)(F)F)n(C)c2=O)c1NC(=O)OCc1ccc(Cl)cc1 [4-61]
60: Pre-emerge Herbicidal Activity IPOHE ([4]; rate 250 g ai/ha) | Pre-emerge Herbicidal Activity ABUTH ([9]; rate 63 g ai/ha) | Post-emerge Herbicidal Activity ECHCG ([12]; 250 g ai/ha)
40: Pre-emerge Herbicidal Activity CASOB ([8]; rate 63 g ai/ha) | Post-emerge Herbicidal Activity ECHCG ([12]; 63 g ai/ha) | Post-emerge Herbicidal Activity RICE ([22]; 63 g ai/ha)
80: Pre-emerge Herbicidal Activity SETVI ([3]; rate 63 g ai/ha) | Post-emerge Herbicidal Activity SETVI ([13]; 250 g ai/ha) | Post-emerge Herbicidal Activity RICE ([22]; 250 g ai/ha)
70: Pre-emerge Herbicidal Activity ABUTH ([9]; rate 250 g ai/ha) | Post-emerge Herbicidal Activity SETVI ([13]; 63 g ai/ha) | Post-emerge Herbicidal Activity SORHA ([15]; 250 g ai/ha) | Post-emerge Herbicidal Activity DIGSA ([17]; 250 g ai/ha) | Post-emerge Herbicidal Activity CORN ([21]; 250 g ai/ha)
20: Pre-emerge Herbicidal Activity SORHA ([5]; rate 63 g ai/ha)
50: Pre-emerge Herbicidal Activity ECHCG ([2]; rate 250 g ai/ha) | Pre-emerge Herbicidal Activity SORHA ([5]; rate 250 g ai/ha) | Pre-emerge Herbicidal Activity DIGSA ([7]; rate 63 g ai/ha) | Pre-emerge Herbicidal Activity RICE ([11]; rate 250 g ai/ha) | Post-emerge Herbicidal Activity SORHA ([15]; 63 g ai/ha) | Post-emerge Herbicidal Activity DIGSA ([17]; 63 g ai/ha) | Post-emerge Herbicidal Activity CORN ([21]; 63 g ai/ha)
75: Pre-emerge Herbicidal Activity SETVI ([3]; rate 250 g ai/ha)
30: Pre-emerge Herbicidal Activity ECHCG ([2]; rate 63 g ai/ha) | Pre-emerge Herbicidal Activity IPOHE ([4]; rate 63 g ai/ha) | Pre-emerge Herbicidal Activity CASOB ([8]; rate 250 g ai/ha)
90: Pre-emerge Herbicidal Activity DIGSA ([7]; rate 250 g ai/ha)
100: Pre-emerge Herbicidal Activity AMARE ([1]; rate 63 g ai/ha) | Pre-emerge Herbicidal Activity AMARE ([1]; rate 250 g ai/ha) | Pre-emerge Herbicidal Activity CHEAL ([6]; rate 63 g ai/ha) | Pre-emerge Herbicidal Activity CHEAL ([6]; rate 250 g ai/ha) | Post-emerge Herbicidal Activity IPOHE ([14]; 63 g ai/ha) | Post-emerge Herbicidal Activity IPOHE ([14]; 250 g ai/ha) | Post-emerge Herbicidal Activity CHEAL ([16]; 63 g ai/ha) | Post-emerge Herbicidal Activity CHEAL ([16]; 250 g ai/ha) | Post-emerge Herbicidal Activity AMARE ([18]; 63 g ai/ha) | Post-emerge Herbicidal Activity AMARE ([18]; 250 g ai/ha) | Post-emerge Herbicidal Activity CASOB ([19]; 63 g ai/ha) | Post-emerge Herbicidal Activity CASOB ([19]; 250 g ai/ha) | Post-emerge Herbicidal Activity ABUTH ([20]; 63 g ai/ha) | Post-emerge Herbicidal Activity ABUTH ([20]; 250 g ai/ha)
0: Pre-emerge Herbicidal Activity CORN ([10]; rate 63 g ai/ha) | Pre-emerge Herbicidal Activity CORN ([10]; rate 250 g ai/ha) | Pre-emerge Herbicidal Activity RICE ([11]; rate 63 g ai/ha)
